Broadly, the IC50 is the concentration at which inhibition is half-maximal. Read a high IC50 as lower potency.

The results in this text go back to patent US8575360B2, “Derivatives of 6,7-dihydro-5H-imidazo[1,2-a]imidazole-3-carboxylic acid amides” (Boehringer Ingelheim International GmbH, priority 2009, dated 2013).

T1 sequence (P20701 26-1170): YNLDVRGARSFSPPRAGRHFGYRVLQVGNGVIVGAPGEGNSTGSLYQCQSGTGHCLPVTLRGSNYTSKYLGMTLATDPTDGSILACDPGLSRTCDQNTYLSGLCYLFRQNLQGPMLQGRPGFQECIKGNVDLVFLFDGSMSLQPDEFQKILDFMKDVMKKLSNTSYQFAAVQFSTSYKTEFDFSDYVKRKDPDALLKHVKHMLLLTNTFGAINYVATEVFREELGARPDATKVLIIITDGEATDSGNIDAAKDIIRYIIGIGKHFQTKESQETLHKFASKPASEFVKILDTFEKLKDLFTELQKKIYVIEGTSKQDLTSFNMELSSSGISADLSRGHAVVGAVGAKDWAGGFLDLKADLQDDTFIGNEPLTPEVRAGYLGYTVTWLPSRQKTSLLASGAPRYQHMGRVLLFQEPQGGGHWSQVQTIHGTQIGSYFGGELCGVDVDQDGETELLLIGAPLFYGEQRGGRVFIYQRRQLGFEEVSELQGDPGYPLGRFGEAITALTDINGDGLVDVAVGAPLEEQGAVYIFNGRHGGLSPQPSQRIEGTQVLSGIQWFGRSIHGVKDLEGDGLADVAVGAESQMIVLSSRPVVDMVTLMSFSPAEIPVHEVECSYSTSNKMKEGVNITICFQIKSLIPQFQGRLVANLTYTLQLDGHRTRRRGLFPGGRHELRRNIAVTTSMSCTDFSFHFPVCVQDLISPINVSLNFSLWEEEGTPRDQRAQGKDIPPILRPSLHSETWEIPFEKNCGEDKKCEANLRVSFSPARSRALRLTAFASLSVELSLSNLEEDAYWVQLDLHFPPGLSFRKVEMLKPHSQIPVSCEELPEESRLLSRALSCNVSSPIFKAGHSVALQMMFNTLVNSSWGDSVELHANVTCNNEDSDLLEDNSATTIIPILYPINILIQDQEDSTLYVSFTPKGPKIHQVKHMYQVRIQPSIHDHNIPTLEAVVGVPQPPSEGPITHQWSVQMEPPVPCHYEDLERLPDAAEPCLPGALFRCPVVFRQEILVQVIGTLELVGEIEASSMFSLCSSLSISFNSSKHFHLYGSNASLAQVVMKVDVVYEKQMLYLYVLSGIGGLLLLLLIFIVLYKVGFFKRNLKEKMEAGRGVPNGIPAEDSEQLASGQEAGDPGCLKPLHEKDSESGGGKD
T1 sequence (P05107 23-769 partner): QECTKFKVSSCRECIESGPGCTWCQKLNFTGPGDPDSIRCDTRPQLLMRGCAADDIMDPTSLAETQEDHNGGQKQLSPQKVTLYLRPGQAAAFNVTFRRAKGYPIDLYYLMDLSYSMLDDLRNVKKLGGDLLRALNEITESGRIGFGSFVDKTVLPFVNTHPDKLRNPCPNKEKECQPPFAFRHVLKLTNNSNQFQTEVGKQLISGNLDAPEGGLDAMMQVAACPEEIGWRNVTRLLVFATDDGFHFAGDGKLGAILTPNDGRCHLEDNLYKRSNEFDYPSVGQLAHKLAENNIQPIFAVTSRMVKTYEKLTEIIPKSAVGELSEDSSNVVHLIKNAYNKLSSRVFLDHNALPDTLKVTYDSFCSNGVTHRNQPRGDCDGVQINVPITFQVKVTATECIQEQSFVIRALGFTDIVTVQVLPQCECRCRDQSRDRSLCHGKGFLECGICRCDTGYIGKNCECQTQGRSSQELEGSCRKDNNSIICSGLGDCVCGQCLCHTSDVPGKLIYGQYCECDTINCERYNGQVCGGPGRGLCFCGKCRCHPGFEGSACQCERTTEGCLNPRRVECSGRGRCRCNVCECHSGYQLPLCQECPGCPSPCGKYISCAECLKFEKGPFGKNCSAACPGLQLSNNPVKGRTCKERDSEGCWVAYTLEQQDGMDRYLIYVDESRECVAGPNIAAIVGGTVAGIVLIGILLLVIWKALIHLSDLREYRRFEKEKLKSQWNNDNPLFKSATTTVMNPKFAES

The test concerns the target T1, LFA-1 (CD18/CD11a) binding to ICAM-1 (Homo sapiens, UniProt P05107+P20701).
T1 construct: followed by purified LFA-1 (in buffer of 50 mM triethylamine, 150 mM NaCl, 1% beta octylglucoside)
Nature of the test: LFA-1/Biotin-sICAM-1 AlphaScreen assay: inhibition of LFA-1 binding to ICAM-1. Conditions: 37° C. 90 minutes, highest compound concentration 1 μM. The text has this:
Assay to Determine Inhibition of LFA-1 Binding to ICAM-1
This assay protocol is designed to study the direct antagonism, by a test compound, of the interaction of ICAM-1 with the Leukointegrin CD18/CD11a (LFA-1).
The LFA-1/Biotin-sICAM-1 molecular assay measures the ability of test compounds to inhibit binding of LFA-1 to Biotinylated-sICAM using AlphaScreen technology (Ref: Wilson, J, Rossi, C P, Carboni, S, Fremaux, C, Perrin, D, Soto, C, Kosco-Vilbois, M, and Scheer, A: A Homogeneous 384-Well High-Throughput Binding Assay for a TNF Receptor Using Alphascreen Technology. J Biomol Screen 2003; 8:522-532) that uses TS2/4(anti-LFA-1)-custom conjugated AlphaLisa acceptor beads and streptavidin-coated donor beads from PerkinElmer. The assay was performed in white OptiPlates-384 in a volume of 60 μL using assay buffer (Dulbecco's PBS containing calcium and magnesium, 2 mM MgCl2, 0.1 mM PMSF, 0.1% BSA, pH 7.1). To each well, Biotin-sICAM was added followed by purified LFA-1 (in buffer of 50 mM triethylamine, 150 mM NaCl, 1% beta octylglucoside, 2 mM MgCl2 neutralized to pH with 1M Tris-HCl, pH 7.5). For compound testing, compound was added in 5 uL to the above in 25 uL. LFA-1 and Biotin-sICAM-1 were used at concentrations that would yield a signal to background ratio of 8-10. The highest concentration of compound was 1 μM in 1% DMSO. Positive controls were wells without compound containing LFA-1, while blanks were wells without both compound and LFA-1. Plates were mixed and incubated at 37° C. for 90 minutes. This was followed by addition of 15 μL/well TS2/4-conjugated acceptor beads diluted in PBS containing 0.1% BSA for a final concentration of 10 μg/mL. The plates were mixed and incubated in the dark for 30 minutes at room temperature followed by addition of 15 μL/well streptavidin-coated donor beads diluted in PBS containing 0.1% BSA at a final concentration of 15 μg/mL. The plates were mixed and incubated in the dark for 60 minutes at room temperature and then read on an EnVision Multilabel Reader using AlphaScreen 384-well OptiPlate protocol.
On the technique in general: In Alpha technology, singlet oxygen from a donor bead excites a nearby acceptor bead.
For `C[C@@]1(Cc2ccc(OC(F)(F)F)cc2)C(=O)N(c2cc(Cl)c(F)c(Cl)c2)c2ncc(C(=O)NC3(C(=O)NC4(c5ncc(-c6ccc(CO)nc6)cn5)CC4)CC3)n21` [Compound 110], the IC50 turned out to be 0.65 nM. This counts as sub-nanomolar.

As to `Cc1nn(C)cc1-c1ccc(C2(NC(=O)[C@@H](NC(=O)c3cnc4n3[C@](C)(Cc3ccc(C#N)cc3)C(=O)N4c3cc(Cl)c(F)c(Cl)c3)[C@@H](C)O)CC2)nc1` [Compound 155], the half-inhibitory concentration (IC50) is 0.56 nM.

With `Cn1cc(-c2cnc(C3(NC(=O)C4(NC(=O)c5cnc6n5[C@](C)(Cc5ccc(OC(F)(F)F)cc5)C(=O)N6c5cc(Cl)c(F)c(Cl)c5)CC4)CC3)nc2)cn1` [Compound 40, (R)-7-(3,5-Dichloro-4-fluoro-phenyl)-5-methyl-6-oxo-5-(4-trifluoromethoxy-benzyl)-6,7-dihydro-5H-imidazo[1,2-a]imidazole-3-carboxylic acid(1-{1-[5-(1-methyl-1H-pyrazol-4-yl)-pyrimidin-2-yl]-cyclopropylcarbamoyl}-cyclopropyl)-amide], the IC50 was determined as 1.7 nM.

For the molecule `C[C@@]1(Cc2ccc(C#N)cc2)C(=O)N(c2cc(Cl)c(F)c(Cl)c2)c2ncc(C(=O)NC3(C(=O)NC4(c5ccc6cc(-c7cn[nH]c7)cnc6n5)CCC4)CC3)n21` [Compound 10], the IC50 was determined as 1 nM.

Take `Cc1nn(C)c(C)c1-c1ccc(C2(NC(=O)C3(NC(=O)c4cnc5n4[C@](C)(Cc4ccc(C#N)cc4)C(=O)N5c4cc(Cl)c(F)c(Cl)c4)CC3)CC2)nc1` [Compound 101]: the 50% inhibitory concentration (IC50) is 1.1 nM.

As to `C[C@@]1(Cc2ccc(C#N)cc2)C(=O)N(c2cc(Cl)cc(Cl)c2)c2ncc(C(=O)NC3(C(=O)NC4(c5ccc(-c6cnc7[nH]ccc7c6)cn5)CC4)CC3)n21` [Compound 146], the concentration for half-maximal inhibition (IC50) is 1.6 nM.

Molecule `CN(C)C(=O)c1cccc(-c2ccc(C3(NC(=O)C4(NC(=O)c5cnc6n5[C@](C)(Cc5ccc(C#N)cc5)C(=O)N6c5cc(Cl)cc(Cl)c5)CC4)CC3)nc2)c1` [Compound 56] came in with a concentration for half-maximal inhibition (IC50) of 0.67 nM.

As for `C[C@@H](NC(=O)C1(NC(=O)c2cnc3n2[C@](C)(Cc2ccc(C#N)cc2)C(=O)N3c2cc(Cl)c(F)c(Cl)c2)CC1)c1ccc(-c2ccc(CO)nc2)cn1` [Compound 65], the IC50 came to 0.53 nM. The IC50 values of the last two molecules are within 1.5-fold of each other.

In the case of `Cc1cc(-c2ccc(C3(NC(=O)C4(NC(=O)c5cnc6n5[C@](C)(Cc5ccc(C#N)cc5)C(=O)N6c5cc(Cl)cc(Cl)c5)CC4)CC3)nc2)ccn1` [Compound 54], the IC50 is 0.53 nM.

For the molecule `C[C@@]1(Cc2ccc(C#N)cc2)C(=O)N(c2cc(Cl)cc(Cl)c2)c2ncc(C(=O)NC3(C(=O)NC4(c5ccc(-c6ccc(F)nc6)cn5)CC4)CC3)n21` [Compound 58], the IC50 worked out at 0.71 nM.

As for `Cn1cc(-c2ccc(C3(NC(=O)C4(NC(=O)c5cnc6n5[C@](C)(Cc5ccc(C#N)cc5)C(=O)N6c5cc(Cl)cc(Cl)c5)CC4)CC3)nc2)cn1` [Compound 149], the IC50 amounted to 0.33 nM.

`CC(O)C(NC(=O)c1cnc2n1C(C)(Cc1ccc(C#N)cc1)C(=O)N2c1cc(Cl)c(F)c(Cl)c1)C(=O)NC1(c2ccc(-c3cnn(C)c3)nc2)CC1` (stereo not drawn) [Compound 152] came in with an IC50 of 1.1 nM.
